In patent US11612652B2, “Lipids as synthetic vectors to enhance antigen processing and presentation ex-vivo in dendritic cell therapy” (PDS Biotechnology Corporation, priority 2015, dated 2023):

Key:
THP-1 cells = assay: DQ-OVA uptake in human monocyte cell line, confocal microscopy and flow cytometry; format: cell-based; settings: DQ-OVA 10 μg/ml, R-DOTAP 25 μg/ml, 1 h at 37° C.
Protocol: To determine the effect of cationic lipids on human cells, a human monocyte cell line, THP-1 was used to assess DQ-OVA uptake ex-vivo. THP-1 is representative of human blood derived monocyte cells, the same cells that are used to produce DC from patients in ex vivo DC therapy approaches. THP-1 cells were incubated with DQ-OVA (10 μg/ml) in the presence (A, B) or absence (C, D) of R-DOTAP (25 μg/ml) for 1 h at 37° C. The same cell was imaged using a laser scanning confocal microscope and quantitated by measuring green versus red fluorescence by flow cytometry. […] Another striking observation from FIGS. 6A and B, is the accumulation of processed OVA in endocytic vesicles. It is well known that proteins in endocytic vesicles are efficiently incorporated into MHC class II molecules for stimulating CD4 T cells or shuttled into the cross-presentation pathway for presentation on MHC class I to CD8 T cells. Thus, cationic lipids facilitate protein uptake in a manner which maximally optimizes presentation of antigen onto both MHC class I and class II molecules, resulting in maximal stimulation of CD8 and CD4 T cells respectively.

TC-1 tumors = assay: Established TC-1 tumor model: tumor microenvironment, tumor volume, ELISPOT; format: in vivo, C57 mice; settings: Day 19 flow cytometry
Protocol: C57 mice were divided into the following groups of 8 mice per group: R-DOTAP+HPV16 E7 peptide KF18 ([…]) (SEQ ID NO: 4) , GM-CSF+HPV16 E7 peptide KF18, R-DOTAP, GM-C SF, HPV16 E7 peptide KF18, untreated. 1×10^5 TC-1 tumor cells were injected into the flank of the mice on day 0. The various formulations were administered on Days 12 and 19 after tumor implantation. On day 19 4-5 mice per group were sacrificed and a number of evaluations performed to evaluate the immunology of the tumor microenvironment.
RF9 specific dextramer staining and flow cytometry were utilized to quantify the number of HPV-specific CD8+ T-cells that had infiltrated into the tumor micro-environment. The study quantified the number of CD8+ T cells specific to the mouse epitope RF9. These CD8+ T cells were measured as a percentage of all immune cells (CD45, CD3 and CD8) present in the tumor. Antigen specific T cells infiltrating into the tumor were measured using RF9 specific dextramers by flow cytometry. […] Data represents mean±SEM of 4-5 mice in each group.
On Day 19 flow cytometry was used to study the immuno-suppressive tumor microenvironment, specifically the regulatory T cell population. T regulatory cells (CD45+CD3+CD4+CD25+Foxp3+) cells infiltrated into tumors on day 14 and day 19.
Of critical importance to the clinical efficacy of any immunotherapy is the ratio of immune suppressive cells to tumor targeting CD8+ T cells within the tumor microenvironment. A lower ratio of immune suppressor cells to CD8+ T cells promotes improved prognosis for anti-tumor benefit. […] Cationic lipids appear to promote the preferential expansion of the right phenotype of effector T-cells in preference to Tregs.
The various formulations were evaluated for their impact on the established TC-1 tumors in the same study. […] Tumor volumes were measured using calipers. The naïve mice group are tumor bearing mice that remained untreated. The HPV16 E7 peptide used in the vaccine is KF18. […]
In this study, IFN-γ ELISPOT studies were also performed to quantify and understand the “quality” of tumor-specific T-cell generated. […]

CCCCCCCC/C=C\CCCCCCCC(=O)OCC(C[N+](C)(C)C)OC(=O)CCCCCCC/C=C\CCCCCCCC (centres unmarked) [R-DOTAP, 1,2-dioleoyl-3-trimethylammonium propane] was tested, and the “DQ-OVA uptake in THP-1 cells” value (THP-1 cells) was “dramatically enhanced the uptake of DQ-OVA in THP-1 cells” and the “ability to reduce the population of Tregs in tumors” value (TC-1 tumors) was “statistical significance was not achieved”.
